Experimental data published in patent publication US12077534B2, “Aza-heterobicyclic inhibitors of MAT2A and methods of use for treating cancer” (Les Laboratoires Servier SAS, priority 2018, dated 2024).

Assays:
HCT116 MTAP+/+ = test: Inhibition of cellular proliferation (Cell Titer Glo), HCT116 MTAP+/+; type: cell-based; conditions: Homo sapiens, HCT-116, 96 h, 4 days, read-out: 4 Day Relative Growth Inhibition (MTAP +/+)
Experimental: (§1) Test compound impact on cancer cell growth was assessed by treating cancer cells with compound for 4 days and then measuring proliferation using an ATP-based cell proliferation readout (Cell Titer Glo, Promega Corporation).
(§2) In a typical assay an isogenic pair of HCT116 human colon carcinoma cell lines which vary only in MTAP deletion status (HCT116 MTAP+/+ and HCT116 MTAP−/−) were plated in 96-well dishes at appropriate cell density. Following 24 hours, cells were then treated with the candidate MAT2A inhibitor. Prior to addition to cells, the compound was first serially diluted in 100% DMSO, typically as a 3-fold serial dilution starting at 500× top dose with 10 dose points including DMSO only control. Compound was then transferred to a working stock plate in cell culture media by adding 5 μL of compound in DMSO to 495 μL of cell culture media. This working stock was then added to cells via a further 5-fold dilution, by adding 25 μL of working stock to 100 μL of cells in culture media. Following compound addition, cells were incubated at 37° C./5% CO2 for 4 days.
(§3) To measure inhibition of cellular proliferation, cells were allowed to equilibrate to room temperature for 30 minutes, and were then treated with 125 μL of Cell Titer Glo reagent. The plate was then covered with aluminum foil and shaken for 15 minutes to ensure complete mixing and full cell lysis. Luminescent signal was then measured using a plate-based luminometer Veritas version 1.9.2 using ATP standard curve to confirm assay reproducibility from run to run. This luminescence measure was converted to a proliferation index by subtracting from each data point the ATP luminescence signal measured from a bank (no cells) well and dividing by the ATP luminescence signal measured in 0.2% DMSO control well adjusted for signal in blank well. Compound activity was then represented as a percentage change in proliferation relative to a within-plate DMSO control against log 10 of compound concentration in molar (M) units.

HCT116 MTAP−/− = test: Inhibition of cellular proliferation (Cell Titer Glo), HCT116 MTAP-/-; type: cell-based; conditions: Homo sapiens, HCT-116, 96 h, 4 days, read-out: 4 Day Relative Growth Inhibition (MTAP −/−)
Experimental: as §1, §2, §3

MAT2A homodimer = molecular target: T1, MAT2A homodimer (Homo sapiens, UniProt P31153); test: MAT2A biochemical assay (phosphate release, PiColorLock Gold); conditions: recombinant MAT2A homodimer, 60 min pre-incubation, 25° C.; read-out: Enzyme Inhibition
T1 construct: inferred from Ni sepharose purification and imidazole elution; made in house; host or cells: SF9 insect cells, recombinant baculovirus (Bac to Bac, pFASTBAC1)
Experimental: Mat2A protein was expressed by recombinant baculovirus in SF9 infected cells using the Bac to Bac system cloned into the pFASTBAC1 vector (Invitrogen, Carlsbad, CA). Recombinant MAT2A was isolated from the cell lysate of 150 g of infected cells using HP Ni sepharose column chromatography. Recombinant MAT2A homodimer was eluted with 250 and 500 mM imidazole, and fractions containing MAT2A were identified by sodium dodecyl sulfate polyacrylamide gel electrophoresis and pooled.
For determination of the inhibitory potency of compounds against the MAT2A homodimer, protein was diluted to 4 μg/mL in assay buffer (50 mM Tris, pH 8.0, 50 mM KCl, 15 mM MgCl2, 0.3 mM EDTA, 0.005% [w/v] bovine serum albumin [BSA]). Test compound was prepared in 100% dimethyl sulfoxide (DMSO) at 50× the desired final concentration. A 1 μL volume of compound dilution was added to 40 μL of enzyme dilution and the mixture was allowed to equilibrate for 60 minutes at 25° C. The enzymatic assay was initiated by the addition of 10 μL of substrate mix (500 μM ATP, pH 7.0, 400 μM L-methionine in 1× assay buffer), and the mixture was incubated for a further 60 minutes at 25° C. The reaction was halted and the liberated phosphate released by the enzyme in stoichiometric amounts by the production of S-adenosyl methionine (SAM) was measured using the PiColorLock Gold kit (Innova Biosciences, UK). Absolute product amounts were determined by comparison to a standard curve of potassium phosphate buffer, pH 8.0.

[1] = test system: MAT2A activity (SAM) in HCT116 cells with deleted MTAP gene; test: Cellular assay of target engagement (SAM) by LC-MS/MS; type: cell-based; conditions: Homo sapiens, HCT-116; HCT116 MTAP −/−, 72 hrs; read-out: Cell 72 h SAM Inhibition (MTAP −/−)
Experimental: Measurement of MAT2A activity in cells was made by direct quantitation of the abundance of the product of its enzymatic activity, SAM. Cancer cells were treated with candidate MAT2A inhibitors for a suitable incubation period, and the cells were then lysed using a reagent which quenched any further enzyme activity. Soluble metabolites including SAM were collected and SAM itself was directly measured from the lysate using quantitative LC-MS/MS.
A typical assay was performed using an HCT116 human colon carcinoma cell line which was genetically engineered to delete the MTAP gene (commercially available from Horizon Discovery). This cell line was utilized because it was determined that loss of the MTAP gene predicts sensitivity to MAT2A inhibitors. Cells were plated in 96-well dishes at appropriate cell density. Following 24 hours, cells were then treated with the candidate MAT2A inhibitor. Prior to addition to cells, the compound was first serially diluted in 100% DMSO, typically as a 3-fold serial dilution starting at 500× top dose with 10 dose points including DMSO only control. Compound was then transferred to a working stock plate in cell culture media by adding 5 μL of compound in DMSO to 495 μL of cell culture media. This working stock was then added to cells via a further 5-fold dilution, by adding 25 μL of working stock to 100 μL of cells in culture media. Following compound addition, cells were incubated at 37° C./5% CO2 for 72 hrs.
To quantitate SAM levels following compound treatment, cells were gently washed once in ammonium carbonate buffer (75 mM at pH 7.4), placed on dry ice, and lysed with metabolite extraction buffer (80% cold methanol and 20% water (v/v) with acetic acid at 1M final concentration with 200 ng/mL deuterated d3-SAM as internal control). Following centrifugation at 4° C. at 3,200 rpm for 30 minutes, the supernatant was collected and stored at −80° C. until analysis by Liquid Chromatography with tandem Mass Spectrometry (LC-MS/MS). LC-MS/MS analysis was performed using an API6500 Mass Spectrometer (Sciex, Framingham, MA, USA) operating in positive ion spray mode and equipped with a Waters UPLC Acquity (Waters, Milford, MA, USA) BEH Amide column. Multiple Reaction Monitoring data was acquired for SAM and the d3-SAM standard, using a mass transition pair at m/z 399.2→250.1 and 402.2→250.1, respectively. In a typical LC-MS/MS analysis, the initial flow rate was 0.5 ml/min of 25% mobile phase A (acetonitrile and water at 5:95 (v/v) with 1% formic acid and 10 mM ammonium acetate) and 75% mobile phase B (acetonitrile and water at 95:5 (v/v) with 1% formic acid and 10 mM ammonium acetate), 0.2-0.5 minutes with 75%-35% mobile phase B, 25%-65% mobile phase A, at 0.5 min 65% mobile phase A and 35% mobile phase B, 1.0-1.1 minutes with 35%-75% mobile phase B, 65%-25% mobile phase A, at 1.1 min 25% mobile phase A and 75% mobile phase B with a total run time of 1.5 minutes.

T1 sequence (P31153 whole entry): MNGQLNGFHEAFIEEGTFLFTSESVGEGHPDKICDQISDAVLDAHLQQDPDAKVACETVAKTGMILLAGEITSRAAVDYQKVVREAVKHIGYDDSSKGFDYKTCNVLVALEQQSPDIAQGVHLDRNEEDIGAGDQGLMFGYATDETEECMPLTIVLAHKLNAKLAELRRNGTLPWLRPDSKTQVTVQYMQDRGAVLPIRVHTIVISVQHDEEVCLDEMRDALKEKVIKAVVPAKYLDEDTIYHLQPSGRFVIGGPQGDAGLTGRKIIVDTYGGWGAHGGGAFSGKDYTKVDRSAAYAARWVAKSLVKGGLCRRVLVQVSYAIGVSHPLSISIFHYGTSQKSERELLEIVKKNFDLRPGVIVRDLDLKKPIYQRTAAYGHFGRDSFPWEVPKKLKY

Structure (SMILES) | IC50 (HCT116 MTAP+/+) | IC50 (HCT116 MTAP−/−) | IC50 (MAT2A homodimer) | IC50 [1]
COc1ccc(-n2nc3ccc(OCC(F)(F)F)nc3c(-c3ccc(Cl)cc3)c2=O)cc1 [Example 118] |  |  | 100 to 1000 nM | 
Cn1cc2cc(-n3nc4ccc(N5CCC5)nc4c(-c4ccc(OC(F)F)cc4)c3=O)ccc2n1 [Example 164] |  |  | 100 to 1000 nM | 
N#Cc1ccc(-n2nc3ccc(OCC(F)F)nc3c(-c3ccc(OC(F)F)cc3)c2=O)cc1 [Example 181] |  |  | 1000 to 10000 nM | 
CNc1ccc(-n2nc3ccc(OCC(F)F)nc3c(-c3ccc(OC(F)F)cc3)c2=O)cc1 [Example 185] |  |  | 100 to 1000 nM | 
O=c1c(-c2ccc(OC(F)F)cc2)c2nc(OCC(F)F)ccc2nn1-c1cncs1 [Example 186] |  |  | 100 to 1000 nM | 
O=c1c(-c2ccc(OC(F)F)cc2)c2nc(OCC(F)F)ccc2nn1-c1ccc(Cl)cc1 [Example 190] |  |  | 1000 to 10000 nM | 
Cn1cc2cc(-n3nc4ccc(OCC(F)F)nc4c(C#C[Si](C)(C)C)c3=O)ccc2n1 [Example 213, 6-(2,2-difluoroethoxy)-2-(2-methyl-2H-indazol-5-yl)-4-((trimethylsilyl)ethynyl)pyrido[3,2-c]pyridazin-3(2H)-one] | ≥ 1000 nM | ≥ 1000 nM | 100 to 1000 nM | 
O=C1CCC(n2nc3ccc(OCC(F)F)nc3c(-c3ccc(OC(F)F)cc3)c2=O)CC1 [Example 216, 6-(2,2-difluoroethoxy)-4-(4-(difluoromethoxy)phenyl)-2-(4-oxocyclohexyl)pyrido[3,2-c]pyridazin-3(2H)-one] |  |  | 100 to 1000 nM | 
Cn1cc2cc(-n3nc4ccc(OCC5CC5(F)F)nc4c(-c4ccc(C5CC5)nc4)c3=O)ccc2n1 (stereo not drawn) [Example 314] |  |  | < 100 nM | 
[2H]C([2H])([2H])c1ccc(-c2c(=O)n(-c3ccc4nn(C)cc4c3)nc3ccc(NCC)nc23)cn1 [Example 320] |  |  | < 100 nM | 
[2H]C([2H])([2H])Oc1ccc(-n2nc3ccc(NCC(F)(F)F)nc3c(-c3ccc(C(F)F)nc3)c2=O)cc1 [Example 322, 4-(6-(difluoromethyl)pyridin-3-yl)-2-(4-(methoxy-d3)phenyl)-6-((2,2,2-trifluoroethyl)amino)pyrido[3,2-c]pyridazin-3(2H)-one] |  |  | < 100 nM | 
[2H]C([2H])([2H])C([2H])([2H])Nc1ccc2nn(-c3ccc4nn(C)cc4c3)c(=O)c(-c3ccc(C(F)F)nc3)c2n1 [Example 324] |  |  | < 100 nM | 
[2H]C([2H])([2H])n1cc2cc(-n3nc4ccc(NC([2H])([2H])C([2H])([2H])[2H])nc4c(-c4ccc(C)nc4)c3=O)ccc2n1 [Example 325] |  |  | < 100 nM | 
CCNc1ccc2nn(-c3ccc(=O)n(C)c3)c(=O)c(-c3ccc(C(F)F)nc3)c2n1 [Example 326] |  |  | < 100 nM | 
Cn1cc(-n2nc3ccc(OCC(F)F)nc3c(-c3ccc(C(F)F)nc3)c2=O)ccc1=O [Example 328] |  |  | 100 to 1000 nM | 
Cn1cc(-n2nc3ccc(NCC(F)(F)F)nc3c(-c3ccc(C(F)F)nc3)c2=O)ccc1=O [Example 329] |  |  | 100 to 1000 nM | 
[2H]C([2H])([2H])n1cc2cc(-n3nc4ccc(NCC)nc4c(-c4ccc(C)nc4)c3=O)ccc2n1 [Example 330] |  |  | < 100 nM | 
CCNc1ccc2nn(-c3ccc4nn(C)cc4c3)c(=O)c(-c3ccc4[nH]cc(C#N)c4c3)c2n1 [Example 332, 5-(6-(ethylamino)-2-(2-methyl-2H-indazol-5-yl)-3-oxo-2,3-dihydropyrido[3,2-c]pyridazin-4-yl)-1H-indole-3-carbonitrile] |  |  | < 100 nM | 

Continued, values first:

IC50 (HCT116 MTAP+/+) | IC50 (HCT116 MTAP−/−) | IC50 (MAT2A homodimer) | IC50 [1] | Structure (SMILES)
≥ 1000 nM | 100 to 1000 nM | < 100 nM | < 100 nM | Cn1cc2cc(-n3nc4ccc(OCC5CC5)nc4c(-c4ccc(Cl)cc4)c3=O)ccc2n1 [Example 101, 4-(4-chlorophenyl)-6-(cyclopropylmethoxy)-2-(2-methyl-2H-indazol-5-yl)pyrido[3,2-c]pyridazin-3(2H)-one]
≥ 1000 nM | < 100 nM | < 100 nM | < 100 nM | CCNc1ccc2nn(-c3ccc4nn(C)cc4c3)c(=O)c(-c3ccc(Cl)cc3)c2n1 [Example 103, 4-(4-chlorophenyl)-6-(ethylamino)-2-(2-methyl-2H-indazol-5-yl)pyrido[3,2-c]pyridazin-3(2H)-one]
≥ 1000 nM | 100 to 1000 nM | < 100 nM | 100 to 1000 nM | CCOc1ccc2nn(-c3ccc4nn(C)cc4c3)c(=O)c(-c3ccc(OC(F)(F)F)cc3)c2n1 [Example 104]
≥ 1000 nM | 100 to 1000 nM | < 100 nM | 100 to 1000 nM | COc1ccc(-n2nc3ccc(OCC(F)F)nc3c(-c3ccc(OC(F)F)cc3)c2=O)cc1 [Example 105]
100 to 1000 nM | < 100 nM | < 100 nM | < 100 nM | COc1ccc(-c2c(=O)n(-c3ccc4nn(C)cc4c3)nc3ccc(OCC(F)F)nc23)cc1 [Example 106]
 |  | < 100 nM |  | CN(C)c1ccc2nn(-c3ccc4nn(C)c(N(C)C)c4c3)c(=O)c(-c3ccc(OC(F)F)cc3)c2n1 [Example 204, 4-(4-(difluoromethoxy)phenyl)-6-(dimethylamino)-2-(3-(dimethylamino)-2-methyl-2H-indazol-5-yl)pyrido[3,2-c]pyridazin-3(2H)-one]
 |  | < 100 nM |  | Cc1ccc(-c2c(=O)n(-c3ccc4nn(C)cc4c3)nc3ccc(NC4CC4)nc23)cn1 [Example 306]
 |  | < 100 nM |  | COc1ccc(-c2c(=O)n(-c3ccc4nn(C)cc4c3)nc3ccc(NC4CC4)nc23)cn1 [Example 308]
 |  | < 100 nM |  | CCNc1ccc2nn(-c3ccc4ncsc4c3)c(=O)c(-c3ccc(C4CC4)cc3)c2n1 [Example 311]
 |  | < 100 nM |  | CCNc1ccc2nn(-c3ccc4nn(C)cc4c3)c(=O)c(-c3ccc(C4CC4)cc3)c2n1 [Example 312]
